The subject of test [1] is clathrin mediated endocytosis (TfR-SEP) in NIH 3T3 cells. Description: ppH assay combined with patch-clamp dialysis. To be noted: for event frequency ratio f = FWC/FCA: event frequency 8–10 min whole cell over 3–5 min cell attached, same cell, average ± SEM, SEM; for inhibition of endocytosis on dialysis: peptide dialysed through patch pipette, 3T3 cells, ppH assay. The format is cell-based. Here is the method:
To do so, we monitored cellular endocytic activity using the ppH assay with new developments for fully automated analysis on a large number of cells (See “Methods” and Supplementary Fig. 4). We combined this assay, which monitors in real time the endocytic activity of cells, with the patch-clamp technique in order to dialyse the relevant peptide at a known concentration inside the cellular cytoplasm to inhibit endocytosis acutely. Each recording consisted of 5 min in cell-attached mode (CA) with no dialysis followed by 10 min in whole cell mode (WC) during which the inhibitors were dialysed (Fig. 5a, b). Each recording therefore had its own internal control condition, i.e., the cell-attached mode, from which we obtained the frequency ratio f = FWC/FCA, where F is the event frequency recorded during the indicated mode. Of note, the electrical parameters of patch clamp recordings were similar in all conditions (Supplementary Fig. 5). To assess the innocuousness of this assay, we monitored the endocytic activity of unperturbed cells vs. cells dialysed with a control solution (see methods for composition). Patching the cells minimally affected their endocytic activity over a 10 min period (event frequency f = 67.3 ± 4.3%, n = 60, vs. 90.7 ± 14.9% in no patching recordings, n = 8, p = 0.58).
NIH 3T3 cells (ECACC 93061524) were cultured in DMEM supplemented with 1% sodium pyruvate, 1% glutamax and 10% fetal calf serum (Invitrogen). Cells were incubated at 37 °C in 5% CO2 until use and subcultured every 2 to 4 days for maintenance up to passage 20. Cells were transfected with 1.5 μg of TfR-SEP plasmid 24 h prior to imaging and patch clamp. Care was taken to find the right balance between sufficient fluorescent signal to allow for proper imaging and reasonable overexpression to diminish potential saturation artefacts. Best results were obtained using Fugene 6 (Promega) as the transfection reagent but Lipofectamine 2000 (Invitrogen) has also been used in this study due to a temporary arrest of Fugene 6 production by the provider. All transfections were performed according to the manufacturers’ recommendations. Four to eight hours after transfection, cells were seeded at a density of ~70,000 cells ml^−1 on 18 mm glass coverslips coated with poly-L-lysine (3 min application of 0.1 mM polylysine (Sigma P2636) in borate buffer, pH 8.0 followed by a quick rinse in PBS) and used the next day.
Fast solution exchange was controlled by electro-valves (Lee company) connected to a theta glass pipette (TG150, Harvard Apparatus) pulled to ∼100-μm tip size using a vertical puller (Narishige, World Precision Instruments) placed above the recorded cell. Cells were alternatively perfused with HEPES or MES buffered saline solutions (HBS/MBS) containing (in mM): 135 NaCl, 5 KCl, 0.4 MgCl2, 1.8 CaCl2, 1 D-glucose and 20 HEPES or MES. The pH was adjusted to 7.4 or 5.5 using NaOH and osmolarity to 310–315 mOsm L^−1 with NaCl.
Cells were patched with pipettes made of borosilicate glass (GC150F, Harvard Apparatus) and pulled with a vertical Narishige puller (World Precision Instruments). The solution contained (in mM): 130–140 KCH3SO3, 1 EGTA, 0.1 CaCl2, 10–20 HEPES, 4 ATP (sodium or magnesium salt), 0.4 Na-GTP (or GTPγS when indicated), 5 phosphocreatine and 3 sodium ascorbate. pH was adjusted to 7.2 using KOH and osmolarity to ~300 mOsm L^−1. Sodium ascorbate was omitted in earlier recordings but was added for better stability. Chloride ions either came from 2 mM KCl, 10 mM NaCl or 4 mM MgCl2 (when Na-ATP was used) in various trials. All salts were purchased from Sigma-Aldrich. Cells were voltage-clamped at −60 mV with an EPC10 amplifier (HEKA) with series resistance and cell capacitance estimation every 4 s in the whole cell mode. The digital triggers of the amplifier were used to drive the electrovalves for pH changes. […]
Background: Patch clamp records ionic current or voltage across a cell membrane.

In test [2] the target is T1, Ntr-bSUMO-amphSH3 complex (tetrameric, neutravidin) (Mus musculus, UniProt Q7TQF7).
T1 construct: murine Ampiphysin1 SH3 domain residues 607–686); made in house; host or cells: E. coli BL21 (DE3) co-expressing BirA, with biotin
Description: SPR, tetrameric Ntr-bSUMO-amphSH3 on immobilized peptides. The format is binding, murine. To be noted: in the tested concentration range. For orientation: SPR reads the build-up and loss of mass on a sensor chip optically.

T1 sequence (Q7TQF7 607-686): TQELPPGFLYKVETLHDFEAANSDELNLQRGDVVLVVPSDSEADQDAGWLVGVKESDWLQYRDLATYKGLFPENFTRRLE
T1 sequence (P02701 25-152 partner): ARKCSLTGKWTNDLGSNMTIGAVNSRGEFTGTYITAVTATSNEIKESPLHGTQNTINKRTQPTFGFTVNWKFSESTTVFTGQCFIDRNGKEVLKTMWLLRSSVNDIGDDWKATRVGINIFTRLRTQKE

Regarding “Ac-YPPPQVPSRPNRAPPG-NH2 [D15, reference compound]”, the “event frequency ratio f = FWC/FCA” value in test [1] (100 µM peptide in patch pipette, n = 13 (D15)) stood at 59.0 ± 5.0%; in test [1] (1 mM peptide in patch pipette, n = 22 (D15), 15 (D44), 6 (dD15-C)) it was 38.2 ± 3.9%. Also, in test [1], the “inhibition of endocytosis on dialysis” value is reported as “only partial”. Moreover, in test [2], the “binding of Ntr-bSUMO-amphSH3” value was “no binding was observed”.

With `CC(=O)N[C@@H](Cc1ccc(O)cc1)C(=O)N[C@@H](CCCCn1cc(CCC(=O)NCCCOCCOCCOCCCNC(=O)CCC(=O)NCCCOCCOCCOCCCNC(=O)CCC(=O)NCCCOCCOCCOCCCNC(=O)CCC(=O)N2CCC[C@H]2C(=O)N2CCC[C@H]2C(=O)N2CCC[C@H]2C(=O)N[C@@H](CCC(N)=O)C(=O)N[C@H](C(=O)N2CCC[C@H]2C(=O)N[C@@H](CO)C(=O)N[C@@H](CCCNC(=N)N)C(=O)N2CCC[C@H]2C(=O)N[C@@H](CC(N)=O)C(=O)N[C@@H](CCCNC(=N)N)C(=O)N[C@@H](C)C(=O)N2CCC[C@H]2C(=O)N2CCC[C@H]2C(=O)NCC(N)=O)C(C)C)nn1)C(=O)NCCCOCCOCCOCCCNC(=O)CCC(=O)NCCCOCCOCCOCCCNC(=O)CCC(=O)NCCCOCCOCCOCCCNC(=O)CCC(=O)N1CCC[C@H]1C(=O)N1CCC[C@H]1C(=O)N1CCC[C@H]1C(=O)N[C@@H](CCC(N)=O)C(=O)N[C@H](C(=O)N1CCC[C@H]1C(=O)N[C@@H](CO)C(=O)N[C@@H](CCCNC(=N)N)C(=O)N1CCC[C@H]1C(=O)N[C@@H](CC(N)=O)C(=O)N[C@@H](CCCNC(=N)N)C(=O)N[C@@H](C)C(=O)N1CCC[C@H]1C(=O)N1CCC[C@H]1C(=O)NCC(N)=O)C(C)C` [dD15-N], the “inhibition of endocytosis on dialysis” value in test [1] is “clearly increased efficiency over D15”.

Source of the values: article PMC6773865, “Functional recruitment of dynamin requires multimeric interactions for efficient endocytosis” (Nature Communications, 2019).
